Results taken from patent publication US11660349B2, “Non-linear multiblock copolymer-drug conjugates for the delivery of active agents” (priority 2012, dated 2023).
“Also recorded” adds a separate entry of the source.

Legend:
[1] = system: mice with laser-induced choroidal NV; test: Laser-induced choroidal NV (CNV) mouse model; type: in vivo, mouse (C57BL/6); details: 14 days, vs vehicle-injected fellow eyes
Protocol: Pathogen-free C57BL/6 mice (Charles River, Wilmington, Mass.) were treated in accordance with the Association for Research in Vision and Ophthalmology Statement for the Use of Animals in Ophthalmic and Vision Research and the guidelines of the Johns Hopkins University Animal Care and Use Committee.
Choroidal NV was induced by laser photocoagulation-induced rupture of Bruch's membrane as previously described (Tobe, T. et al., Am. J. Pathol. 135(5): 1641-1646(1998)). […] Laser photocoagulation (75 μm spot size, 0.1 sec duration, 120 mW) was performed in the 9, 12, and 3 o'clock positions of the posterior pole of each eye with the slit lamp delivery system of an OcuLight GL diode laser (Iridex, Mountain View, Calif.) and a handheld cover slip as a contact lens to view the retina. Production of a bubble at the time of laser, which indicates rupture of Bruch's membrane, is an important factor in obtaining CNV; therefore, only burns in which a bubble was produced were included in the study.
Immediately after laser-induced rupture of Bruch's membrane, mice were randomized to various treatment groups for intraocular injections. Intravitreal injections were done under a dissecting microscope with a Harvard Pump Microinjection System and pulled glass micropipettes.
At 1, 4, 7, and 14 days after injection, fundus photographs were taken with a Micron III® camera (Phoenix Research Laboratories Inc., Pleasanton, Calif.). After 14 days, the mice were perfused with 1 ml of PBS containing 25 mg/ml of fluorescein-labeled dextran (2×10^6 Daltons average molecular weight; Sigma-Aldrich, St. Louis, Mo.) and choroidal flat mounts were examined by fluorescence microscopy. Images were captured with a Nikon Digital Still Camera DXM1200 (Nikon Instruments Inc., New York, N.Y.). Image analysis software (Image-Pro® Plus; Media Cybernetics, Silver Spring, Md.) was used to measure the total area of CNV at each rupture site with the investigator masked with respect to treatment group.

[2] = system: C57BL/6 mice with oxygen-induced ischemic retinopathy; test: Oxygen-induced ischemic retinopathy, area of retinal NV; type: in vivo, mouse (C57BL/6); details: five days after administration (P17), vs vehicle
Protocol: At P17, the area of retinal NV on the surface of the retina was measured. […] Retinas were dissected, washed, and incubated with goat-anti rat polyclonal antibody conjugated with Alexa 488 (Invitrogen, Carlsbad, Calif.) at 1:500 dilution at room temperature for 45 minutes and flat mounted. An observer masked with respect to treatment group measured the area of NV per retina by image analysis.

Adult C57BL/6 mice [3] = test: Electroretinograms (ERGs), retinal function after intraocular injection
Protocol: For scotopic recordings, mice were dark adapted overnight, and for photopic recordings, mice were adapted for 10 min to background white light at an intensity of 30 cd/m^2. The mice were anesthetized with an intraperitoneal injection of ketamine hydrochloride (100 mg/kg body weight) and xylazine (5 mg/kg body weight). Pupils were dilated with Midrin P containing of 0.5% tropicamide and 0.5% phenylephrine, hydrochloride (Santen Pharmaceutical Co., Osaka, Japan). The mice were placed on a pad heated to 39° C. and platinum loop electrodes were placed on each cornea after application of Gonioscopic prism solution (Alcon Labs, Fort Worth, Tex.). A reference electrode was placed subcutaneously in the anterior scalp between the eyes and a ground electrode was inserted into the tail. The head of the mouse was held in a standardized position in a ganzfeld bowl illuminator that ensured equal illumination of the eyes. Recordings for both eyes were made simultaneously with electrical impedance balanced. Scotopic ERGs were recorded at 11 intensity levels of white light ranging from −3.00 to 1.40 log cd-s/m2. Six measurements were averaged for each flash intensity. Photopic ERGs were recorded at three intensity levels of white light ranging from 0.60 to 1.40 log cd-s/m2 with a 30 cd/m2 background. Five measurements were averaged for each flash intensity.

Adult C57BL/6 mice [4] = test: Outer nuclear layer (ONL) thickness; type: in vivo, mouse (C57BL/6); details: 0.25 μg intraocular; one week after injection
Protocol: ONL thickness was measured. […] Mice were euthanized, a mark was placed at 12:00 at the corneal limbus, and eyes were removed and embedded in optimal cutting temperature compound. Ten micrometer frozen sections were cut parallel to the 12:00 or 9:00 meridian through the optic nerve and fixed in 4% paraformaldehyde. The sections were stained with hematoxylin and eosin, examined with an Axioskop microscope (Zeiss, Thornwood, N.Y.), and images were digitized using a three charge-coupled device (CCD) color video camera (IK-TU40A; Toshiba, Tokyo, Japan) and a frame grabber. Image-Pro Plus software (Media Cybernetics, Silver Spring, Md.) was used to outline the ONL.

[5] = system: HIF-1 transcriptional activity and ocular NV; details: intraocular injections of 0.01-0.25 μg; cited from earlier work
[6] = 0.1 μg intraocular after rupture of Bruch's membrane
[7] = 1.0 μg intraocular after rupture of Bruch's membrane
[8] = 10 μg intraocular after rupture of Bruch's membrane
[9] = 1 μg intraocular, fourteen days after injection

SMILES	area of CNV [1, 6]	area of CNV [1, 7]	area of CNV [1, 8]	area of RNV ([2]; 0.01 μg intraocular at P12)	area of RNV ([2]; 0.1 μg intraocular at P12)	area of RNV ([2]; 1.0 μg intraocular at P12)	mean scotopic and photopic b-wave amplitudes (Adult C57BL/6 mice [3]; [9])	outer nuclear layer thickness (Adult C57BL/6 mice [4])	HIF-1 transcriptional activity and ocular NV [5]	mean scotopic and photopic b-wave amplitudes (Adult C57BL/6 mice [3]; 0.05 μg intraocular)	ERG amplitudes (scotopic a-wave, scotopic b-wave, photopic b-wave) (Adult C57BL/6 mice [3]; 0.25 μg intraocular, one week after injection)
COc1cccc2c1C(=O)c1c(O)c3c(c(O)c1C2=O)C[C@@](O)(C(C)=O)C[C@@H]3O[C@H]1C[C@H](N)[C@H](O)[C@H](C)O1 [DNR, daunorubicin]	had no significant effect; also recorded: did not show a statistically significant reduction in the area of CNV	had no significant effect; also recorded: did not show a statistically significant reduction in the area of CNV	suppressed choroidal NV; also recorded: statistically significant reduction in the area of CNV	had no significant effect; also recorded: did not show a statistically significant reduction in the area of RNV	caused a small reduction; also recorded: statistically significant reduction in the area of RNV	markedly reduced the area of retinal NV; also recorded: statistically significant reduction in the area of RNV	significant reduction in mean scotopic and photopic b-wave amplitudes				
COc1cccc2c1C(=O)c1c(O)c3c(c(O)c1C2=O)C[C@@](O)(C(=O)CO)C[C@@H]3O[C@H]1C[C@H](N)[C@H](O)[C@H](C)O1 [DXR, doxorubicin]	did not have a significant effect; also recorded: did not show a statistically significant reduction in the area of CNV	did not have a significant effect; also recorded: did not show a statistically significant reduction in the area of CNV	suppressed choroidal NV; also recorded: statistically significant reduction in the area of CNV	but not 0.1 or 0.01 μg, significantly reduced the area of retinal NV; also recorded: did not show a statistically significant reduction in the area of RNV	but not 0.1 or 0.01 μg, significantly reduced the area of retinal NV; also recorded: did not show a statistically significant reduction in the area of RNV	significantly reduced the area of retinal NV; also recorded: statistically significant reduction in the area of RNV	significant reduction in mean scotopic and photopic b-wave amplitudes				
C[C@H]1O[C@@H](O[C@H]2[C@@H](O)C[C@H](O[C@H]3[C@@H](O)C[C@H](O[C@H]4CC[C@@]5(C)[C@H](CC[C@@H]6[C@@H]5C[C@@H](O)[C@]5(C)[C@@H](C7=CC(=O)OC7)CC[C@]65O)C4)O[C@@H]3C)O[C@@H]2C)C[C@H](O)[C@@H]1O [digoxin]								reduction in outer nuclear layer thickness at 3 of 6 measurement locations	suppress HIF-1 transcriptional activity and ocular NV	significant reduction in mean scotopic and photopic b-wave amplitudes	significant reduction in mean scotopic a-wave amplitude, mean scotopic b-wave amplitude, and mean photopic b-wave amplitude
